Test results from patent publication US8481540B2, “Inhibitors of bruton's tyrosine kinase” (Hoffmann-La Roche Inc., priority 2010, dated 2013).
Like-named read-outs stand apart in the source and are kept apart here.

Tests used:
B cells in human blood = test: Inhibition of B cell activation in whole blood measured by CD69 expression; type: cell-based; conditions: read-out: Human Whole Blood
How it was run: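 Heparinised human whole blood was preincubated with compound (nine-point, three-fold dilutions) for 30 min at 37 °C. It was then stimulated with 50 μg/ml goat F(ab′)2 anti-human IgM for 20 hours. CD20/CD69 staining, red-cell lysis and flow cytometry gave percent CD69-positive cells, from which IC50 values were calculated.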

[1] = CD69-positive, CD20-positive cells after anti-IgM stimulation, human whole blood, 20 hours

For CCNC(C)(C)c1ccc(Nc2cc(-c3cccc(-n4ncc5cc(C(C)(C)C)cc(F)c5c4=O)c3CO)nn(C)c2=O)nc1 [I-1, 6-tert-butyl-2-(3-{5-[5-(1-ethylamino-1-methyl-ethyl)-pyridin-2-ylamino]-1-methyl-6-oxo-1,6-dihydro-pyridazin-3-yl}-2-hydroxymethyl-phenyl)-8-fluoro-2H-phthalazin-1-one], the melting point was 229 to 233 °C and the IC50 (B cells in human blood; [1]) was 19 nM.

In the case of Cn1nc(-c2cccc(-n3ncc4cc(C(C)(C)C)cc(F)c4c3=O)c2CO)cc(Nc2ccc(S(C)(=O)=O)cn2)c1=O [I-3, 6-tert-Butyl-8-fluoro-2-[2-hydroxymethyl-3-[5-(5-methanesulfonyl-pyridin-2-ylamino)-1-methyl-6-oxo-1,6-dihydro-pyridazin-3-yl]-phenyl}-2H-phthalazin-1-one], the melting point is reported as 225 to 230 °C and the IC50 (B cells in human blood; Homo sapiens, 20 h) is reported as 45 nM.

COC1CN(Cc2ccc(Nc3cc(-c4cccc(-n5ncc6cc(C(C)(C)C)cc(F)c6c5=O)c4CO)nn(C)c3=O)nc2)C1 [I-4, 6-tert-Butyl-8-fluoro-2-(2-hydroxymethyl-3-{5-[5-(3-methoxy-azetidin-1-ylmethyl)-pyridin-2-ylamino]-1-methyl-6-oxo-1,6-dihydro-pyridazin-3-yl}-phenyl)-2H-phthalazin-1-one] showed a melting point of 140 to 142 °C and an IC50 (B cells in human blood; [1]) of 122 nM.

Work on CN1[C@@H]2CC[C@H]1CN(Cc1ccc(Nc3cc(-c4cccc(-n5ncc6cc(C(C)(C)C)cc(F)c6c5=O)c4CO)nn(C)c3=O)nc1)C2 [I-5, 6-tert-Butyl-8-fluoro-2-(2-hydroxymethyl-3-{1-methyl-5-[5-(8-methyl-3,8-diaza-bicyclo[3.2.1]oct-3-ylmethyl)-pyridin-2-ylamino]-6-oxo-1,6-dihydro-pyridazin-3-yl}-phenyl)-2H-phthalazin-1-one] yielded a melting point of 162 to 165 °C and an IC50 (B cells in human blood; [1]) of 25 nM.

In the case of CN(C)CC(C)(C)Oc1ccc(Nc2cc(-c3cccc(-n4ncc5cc(C(C)(C)C)cc(F)c5c4=O)c3CO)nn(C)c2=O)nc1 [I-6, 6-tert-Butyl-2-(3-{5-[5-(2-dimethylamino-1,1-dimethyl-ethoxy)-pyridin-2-ylamino]-1-methyl-6-oxo-1,6-dihydro-pyridazin-3-yl}-2-hydroxymethyl-phenyl)-8-fluoro-2H-phthalazin-1-one], the melting point is reported as 136 to 144 °C and the IC50 (B cells in human blood; [1]) is reported as 31 nM.

Cn1nc(-c2cccc(-n3ncc4cc(C(C)(C)C)cc(F)c4c3=O)c2CO)cc(Nc2ccc(CN3CCC3)cn2)c1=O [I-7, 2-{3-[5-(5-Azetidin-1-ylmethyl-pyridin-2-ylamino)-1-methyl-6-oxo-1,6-dihydro-pyridazin-3-yl]-2-hydroxymethyl-phenyl}-6-tert-butyl-8-fluoro-2H-phthalazin-1-one] showed a melting point of 160 to 163 °C and an IC50 (B cells in human blood; [1]) of 20 nM.

With CN(C)Cc1ccc(Nc2cc(-c3cccc(-n4ncc5cc(C(C)(C)C)cc(F)c5c4=O)c3CO)nn(C)c2=O)nc1 [I-8, 6-tert-Butyl-2-{3-[5-(5-dimethylaminomethyl-pyridin-2-ylamino)-1-methyl-6-oxo-1,6-dihydro-pyridazin-3-yl]-2-hydroxymethyl-phenyl}-8-fluoro-2H-phthalazin-1-one] the melting point was 170 to 174 °C and the IC50 (B cells in human blood; [1]) was 20 nM.

Molecule Cn1nc(-c2cccc(-n3ncc4cc(C(C)(C)C)cc(F)c4c3=O)c2CO)cc(Nc2cnc(C(F)(F)F)cn2)c1=O [I-11, 6-tert-butyl-8-fluoro-2-{2-hydroxymethyl-3-[1-methyl-6-oxo-5-(5-trifluoromethyl-pyrazin-2-ylamino)-1,6-dihydro-pyridazin-3-yl]-phenyl}-2H-phthalazin-1-one] has a melting point of 250 to 254 °C.

CN1CCN(c2cnc(Nc3cc(-c4cccc(-n5ncc6cc(C(C)(C)C)cc(F)c6c5=O)c4CO)nn(C)c3=O)cn2)CC1 [I-34, 6-tert-Butyl-8-fluoro-2-{2-hydroxymethyl-3-[1-methyl-5-(4-methyl-3,4,5,6-tetrahydro-2H-[1,2′]bipyrazinyl-5′-ylamino)-6-oxo-1,6-dihydro-pyridazin-3-yl]-phenyl}-2H-phthalazin-1-one] gave a melting point of 235 to 240 °C and an IC50 (B cells in human blood; [1]) of 125 nM.

With Cn1nc(-c2cccc(-n3ncc4cc(C(C)(C)C)cc(F)c4c3=O)c2CO)cc(Nc2cnc(CNC3CCC3)cn2)c1=O [I-35, 6-tert-Butyl-2-{3-[5-(5-cyclobutylaminomethyl-pyrazin-2-ylamino)-1-methyl-6-oxo-1,6-dihydro-pyridazin-3-yl]-2-hydroxymethyl-phenyl}-8-fluoro-2H-phthalazin-1-one] the melting point was 163 to 167 °C and the IC50 (B cells in human blood; [1]) was 74 nM.

With CN(C)CCOc1cnc(Nc2cc(-c3cccc(-n4ncc5cc(C(C)(C)C)cc(F)c5c4=O)c3CO)nn(C)c2=O)cn1 [I-36, 6-tert-Butyl-2-(3-{5-[5-(2-dimethylamino-ethoxy)-pyrazin-2-ylamino]-1-methyl-6-oxo-1,6-dihydro-pyridazin-3-yl}-2-hydroxymethyl-phenyl)-8-fluoro-2H-phthalazin-1-one] the melting point was 185 to 190 °C.

CN1CCN(Cc2cnc(Nc3cc(-c4cccc(-n5ncc6cc(C(C)(C)C)cc(F)c6c5=O)c4CO)nn(C)c3=O)cn2)CC1 [I-37, 6-tert-Butyl-8-fluoro-2-(2-hydroxymethyl-3-{1-methyl-5-[5-(4-methyl-piperazin-1-ylmethyl)-pyrazin-2-ylamino]-6-oxo-1,6-dihydro-pyridazin-3-yl}-phenyl)-2H-phthalazin-1-one] gave a melting point of 215 to 218 °C and an IC50 (B cells in human blood; [1]) of 84 nM.

Work on CN(C)CC(C)(C)Oc1cnc(Nc2cc(-c3cccc(-n4ncc5cc(C(C)(C)C)cc(F)c5c4=O)c3CO)nn(C)c2=O)cn1 [I-38, 6-tert-Butyl-2-(3-{5-[5-(2-dimethylamino-1,1-dimethyl-ethoxy)-pyrazin-2-ylamino]-1-methyl-6-oxo-1,6-dihydro-pyridazin-3-yl}-2-hydroxymethyl-phenyl)-8-fluoro-2H-phthalazin-1-one] yielded a melting point of 235 to 240 °C and an IC50 (B cells in human blood; [1]) of 12 nM.

Molecule Cn1nc(-c2cccc(-n3ncc4cc(C(C)(C)C)cc(F)c4c3=O)c2CO)cc(Nc2cnc([C@H](O)CO)cn2)c1=O [I-57, 6-tert-Butyl-2-(3-{5-[5-((S)-1,2-dihydroxy-ethyl)-pyrazin-2-ylamino]-1-methyl-6-oxo-1,6-dihydro-pyridazin-3-yl}-2-hydroxymethyl-phenyl)-8-fluoro-2H-phthalazin-1-one] has a melting point of 218 to 224 °C.

With Cn1nc(-c2cccc(-n3ncc4cc(C(C)(C)C)cc(F)c4c3=O)c2CO)cc(Nc2ccc(C3CCN(C4COC4)CC3)cn2)c1=O [I-80, 6-tert-Butyl-8-fluoro-2-{2-hydroxymethyl-3-[1-methyl-5-(1′-oxetan-3-yl-1′,2′,3′,4′,5′,6′-hexahydro-[3,4]bipyridinyl-6-ylamino)-6-oxo-1,6-dihydro-pyridazin-3-yl]-phenyl}-2H-phthalazin-1-one] the IC50 (B cells in human blood; [1]) was 41 nM.

CCN1CCn2nc(Nc3cc(-c4cccc(-n5ncc6cc(C(C)(C)C)cc(F)c6c5=O)c4CO)nn(C)c3=O)cc2C1 [I-82, 6-tert-Butyl-2-{3-[5-(5-ethyl-4,5,6,7-tetrahydro-pyrazolo[1,5-a]pyrazin-2-ylamino)-1-methyl-6-oxo-1,6-dihydro-pyridazin-3-yl]-2-hydroxymethyl-phenyl}-8-fluoro-2H-phthalazin-1-one] gave an IC50 (B cells in human blood; [1]) of 17 nM.

For CCN1CCn2nc(Nc3cc(-c4cccc(-n5ccc6cc(C(C)(C)C#N)cc(F)c6c5=O)c4CO)nn(C)c3=O)cc2C1 [I-83, 2-(2-{3-[5-(5-Ethyl-4,5,6,7-tetrahydro-pyrazolo[1,5-a]pyrazin-2-ylamino)-1-methyl-6-oxo-1,6-dihydro-pyridazin-3-yl]-2-hydroxymethyl-phenyl}-8-fluoro-1-oxo-1,2-dihydro-isoquinolin-6-yl)-2-methyl-propionitrile], the IC50 (B cells in human blood; [1]) was 70 nM.

Work on Cn1nc(-c2cccc(-n3ncc4cc(C(C)(C)C)cc(F)c4c3=O)c2CO)cc(Nc2ccc(CN3CCC(C)(O)CC3)cn2)c1=O [I-85, 6-tert-Butyl-8-fluoro-2-(2-hydroxymethyl-3-{5-[5-(4-hydroxy-4-methyl-piperidin-1-ylmethyl)-pyridin-2-ylamino]-1-methyl-6-oxo-1,6-dihydro-pyridazin-3-yl}-phenyl)-2H-phthalazin-1-one] yielded an IC50 (B cells in human blood; [1]) of 294 nM.

For CCOC(=O)N1CCN(c2ccc(Nc3cc(-c4cccc(-n5ncc6cc(C(C)(C)C)cc(F)c6c5=O)c4CO)nn(C)c3=O)nc2)CC1 [I-86, 4-(6-{6-[3-(6-tert-Butyl-8-fluoro-1-oxo-1H-phthalazin-2-yl)-2-hydroxymethyl-phenyl]-2-methyl-3-oxo-2,3-dihydro-pyridazin-4-ylamino}-pyridin-3-yl)-piperazine-1-carboxylic acid ethyl ester], the IC50 (B cells in human blood; [1]) was 408 nM.

Cn1nc(-c2cccc(-n3ccc4cc(C(C)(C)CF)cc(F)c4c3=O)c2CO)cc(Nc2ccc(C(=O)N3CCOCC3)cn2)c1=O [I-87, 8-Fluoro-6-(2-fluoro-1,1-dimethyl-ethyl)-2-(2-hydroxymethyl-3-{1-methyl-5-[5-(morpholine-4-carbonyl)-pyridin-2-ylamino]-6-oxo-1,6-dihydro-pyridazin-3-yl}-phenyl)-2H-isoquinolin-1-one] gave an IC50 (B cells in human blood; [1]) of 455 nM.

CN1C[C@@H]2C[C@H]1CN2c1cnc(Nc2cc(-c3cccc(-n4ncc5cc(C(C)(C)C)cc(F)c5c4=O)c3CO)nn(C)c2=O)cn1 [I-88, 6-tert-Butyl-8-fluoro-2-(2-hydroxymethyl-3-{1-methyl-5-[5((1S,4S)-5-methyl-2,5-diaza-bicyclo[2.2.1]hept-2-yl)-pyrazin-2-ylamino]-6-oxo-1,6-dihydro-pyridazin-3-yl}-phenyl)-2H-phthalazin-1-one] gave an IC50 (B cells in human blood; [1]) of 203 nM.

Cn1nc(-c2cccc(-n3ncc4cc(C(C)(C)C)cc(F)c4c3=O)c2CO)cc(Nc2ccc(C3CCN(CC(F)(F)F)CC3)cn2)c1=O [I-90, 6-tert-butyl-8-fluoro-2-(2-hydroxymethyl-3-{1-methyl-6-oxo-5-[1′-(2,2,2-trifluoro-ethyl)-1′,2′,3′,4′,5′,6′-hexahydro-[3,4′]bipyridinyl-6-ylamino]-1,6-dihydro-pyridazin-3-yl}-phenyl)-2H-phthalazin-1-one] gave an IC50 (B cells in human blood; [1]) of 340 nM.
